In the oligonucleotide strings, read from the 5' end, every base follows the letter of its sugar. An asterisk marks phosphorothioate; unmarked linkages are phosphodiester. Other units and linkages are bracketed, terminal groups are in braces. A string of capitals states the bases alone. d = 2'-deoxy (DNA); m = 2'-O-methyl
Molecular target: T1, human TLR7 (Homo sapiens, UniProt Q9NYK1)
T1 construct: HA; host or cells: 293XL-hTLR7-HA (HEK293)
T1 sequence (Q9NYK1 27-1049): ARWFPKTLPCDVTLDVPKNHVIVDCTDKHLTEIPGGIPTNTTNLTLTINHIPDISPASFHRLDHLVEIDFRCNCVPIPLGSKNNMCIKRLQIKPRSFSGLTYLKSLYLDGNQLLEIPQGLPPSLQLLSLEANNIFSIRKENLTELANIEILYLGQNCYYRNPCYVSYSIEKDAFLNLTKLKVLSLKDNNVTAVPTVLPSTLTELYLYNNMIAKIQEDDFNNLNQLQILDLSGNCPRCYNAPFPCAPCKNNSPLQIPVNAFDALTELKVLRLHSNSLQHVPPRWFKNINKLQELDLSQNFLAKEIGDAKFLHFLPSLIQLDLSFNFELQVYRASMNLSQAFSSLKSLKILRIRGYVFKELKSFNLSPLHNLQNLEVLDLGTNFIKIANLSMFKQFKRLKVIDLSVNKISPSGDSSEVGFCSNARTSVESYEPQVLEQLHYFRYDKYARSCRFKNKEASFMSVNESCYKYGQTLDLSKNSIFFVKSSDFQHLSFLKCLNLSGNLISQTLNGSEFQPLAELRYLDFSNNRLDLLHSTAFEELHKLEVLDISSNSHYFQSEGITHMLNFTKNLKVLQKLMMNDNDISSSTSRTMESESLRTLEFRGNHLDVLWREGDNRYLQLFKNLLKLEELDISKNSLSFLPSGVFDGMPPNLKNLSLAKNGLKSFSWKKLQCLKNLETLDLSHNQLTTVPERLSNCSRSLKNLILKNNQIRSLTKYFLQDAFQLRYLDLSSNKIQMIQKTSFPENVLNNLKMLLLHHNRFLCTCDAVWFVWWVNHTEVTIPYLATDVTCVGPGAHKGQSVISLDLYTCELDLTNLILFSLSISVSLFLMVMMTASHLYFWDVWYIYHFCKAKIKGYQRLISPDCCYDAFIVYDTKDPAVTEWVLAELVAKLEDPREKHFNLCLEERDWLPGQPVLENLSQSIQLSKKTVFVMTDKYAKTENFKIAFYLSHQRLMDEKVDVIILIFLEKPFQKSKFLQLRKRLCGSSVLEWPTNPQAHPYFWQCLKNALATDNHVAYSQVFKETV
Assay: HEK-TLR7 NF-κB-luciferase reporter, R848 stimulation
Type: cell-based
Conditions: HEK-TLR7; 100 nM ASO; percentage of R848 without ASO (Alharbi et al., 2020)

Row | Substance | TLR7-100 nM: averaged NF-κB-Luciferase relative to R848
1 | mC*mA*mG*mG*mC*C*T*C*C*A*G*T*G*T*C*mU*mU*mC*mU*mC (mC*mA*mG*mG*mC*dC*dT*dC*dC*dA*dG*dT*dG*dT*dC*mU*mU*mC*mU*mC; antisense) [[CDKN2B-AS1]2219] | 54.11%
2 | mC*mA*mU*mC*mC*C*T*T*C*T*G*C*T*G*C*mC*mA*mA*mG*mC (mC*mA*mU*mC*mC*dC*dT*dT*dC*dT*dG*dC*dT*dG*dC*mC*mA*mA*mG*mC; antisense) [[LINC-PINT]98] | 54.34%
3 | mC*mC*mA*mU*mC*C*C*T*T*C*T*G*C*T*G*mC*mC*mA*mA*mG (mC*mC*mA*mU*mC*dC*dC*dT*dT*dC*dT*dG*dC*dT*dG*mC*mC*mA*mA*mG; antisense) [ILING-PINT199] | 52.57%
4 | mC*mC*mA*mU*mG*T*C*C*C*A*G*G*C*C*T*mC*mC*mA*mG*mU (CCAUGTCCCAGGCCTCCAGU; sugars from the 5' end m5 d10 m5, all phosphorothioate, methylation of C not given here) [[CDKN2B-AS1]2227] | 41.39%
5 | mC*mC*mC*mU*mA*A*T*G*C*T*T*T*C*C*T*mC*mU*mC*mC*mA (mC*mC*mC*mU*mA*dA*dT*dG*dC*dT*dT*dT*dC*dC*dT*mC*mU*mC*mC*mA; antisense) [[LINC-PINT1877 KL] | 58.39%
6 | mC*mC*mC*mU*mU*C*T*C*T*C*T*G*G*T*C*mC*mC*mA*mU*mC (mC*mC*mC*mU*mU*dC*dT*dC*dT*dC*dT*dG*dG*dT*dC*mC*mC*mA*mU*mC; antisense) [[LINC-PINT]114] | 49.59%
7 | mC*mC*mU*mA*mG*A*A*A*G*A*A*G*C*A*A*mA*mG*mA*mU*mU (mC*mC*mU*mA*mG*dA*dA*dA*dG*dA*dA*dG*dC*dA*dA*mA*mG*mA*mU*mU) [[CDKN2B-AS1]1522] | 57.20%
8 | mC*mC*mU*mU*mC*T*C*T*C*T*G*GT*C*C*mC*mA*mU*mC*mC (CCUUCTCTCTGGTCCCAUCC; antisense; chemistry not fully specified) [[LINC-PINT]113] | 60.90%
9 | mC*mC*mU*mU*mC*T*G*C*T*G*C*C*A*A*G*mC*mC*mC*mC*mA (mC*mC*mU*mU*mC*dT*dG*dC*dT*dG*dC*dC*dA*dA*dG*mC*mC*mC*mC*mA; antisense) [[LINC-PINT]94] | 85.57%
10 | mC*mU*mC*mU*mC*T*G*G*T*C*C*C*A*T*C*mC*mC*mU*mU*mC (mC*mU*mC*mU*mC*dT*dG*dG*dT*dC*dC*dC*dA*dT*dC*mC*mC*mU*mU*mC; antisense) [[LINC-PINT]109] | 84.97%
11 | mC*mU*mU*mC*mU*C*T*C*T*G*G*T*C*C*C*mA*mU*mC*mC*mC (mC*mU*mU*mC*mU*dC*dT*dC*dT*dG*dG*dT*dC*dC*dC*mA*mU*mC*mC*mC) [[LINC-PINT]112] | 56.20%
12 | mC*mU*mU*mU*mA*T*A*T*T*A*C*A*A*A*G*mC*mU*mA*mC*mU (mC*mU*mU*mU*mA*dT*dA*dT*dT*dA*dC*dA*dA*dA*dG*mC*mU*mA*mC*mU; antisense) [[LINC-PINT]2755] | 54.83%
13 | mG*mA*mA*mA*mA*G*A*T*T*A*T*C*T*T*C*mU*mU*mU*mU*mA (GAAAAGATTATCTTCUUUUA; sugars from the 5' end m5 d10 m5, all phosphorothioate, methylation of C not given here) [[CDKN2B-AS1]2134] | 34.44%
14 | mG*mA*mU*mG*mG*T*T*C*C*A*G*T*C*C*C*mU*mC*mU*mU*mC (GAUGGTTCCAGTCCCUCUUC; antisense; sugars from the 5' end m5 d10 m5, all phosphorothioate, methylation of C not given here) [[LINC-PINT]1497.1] | 22.32%
15 | mG*mA*mU*mU*mA*A*A*A*C*A*G*A*T*T*A*mA*mU*mA*mC*mA (mG*mA*mU*mU*mA*dA*dA*dA*dC*dA*dG*dA*dT*dT*dA*mA*mU*mA*mC*mA) [[CDKN2B-AS1]1773] | 21.92%
16 | mG*mC*mA*mA*mG*G*C*A*G*A*G*A*A*A*C*mU*mC*mC*mA*mG (GCAAGGCAGAGAAACUCCAG; sugars from the 5' end m5 d10 m5, all phosphorothioate, methylation of C not given here) [[LINC-PINT]1315 KL] | 19,99%

Row | Substance | TLR7-100 nM: averaged NF-κB-Luciferase relative to R848
17 | mG*mC*mG*mU*mA*G*T*T*T*C*T*C*T*T*C*mC*mU*mC*mC*mC (GCGUAGTTTCTCTTCCUCCC; sugars from the 5' end m5 d10 m5, all phosphorothioate, methylation of C not given here) [[LINC-PINT]935 KL] | 27.23%
18 | mG*mG*mA*mU*mU*A*A*A*A*C*A*G*A*T*T*mA*mA*mU*mA*mC (GGAUUAAAACAGATTAAUAC; sugars from the 5' end m5 d10 m5, all phosphorothioate, methylation of C not given here) [[CDKN2B-AS1]1774] | 27.16%
19 | mG*mG*mG*mU*mC*T*C*C*T*C*C*A*C*A*C*mC*mC*mU*mU*mC (GGGUCTCCTCCACACCCUUC; antisense; sugars from the 5' end m5 d10 m5, all phosphorothioate, methylation of C not given here) [[LINC-PINT]128] | 21.47%
20 | mG*mG*mU*mC*mC*C*A*T*C*C*C*T*T*C*T*mG*mC*mU*mG*mC (GGUCCCATCCCTTCTGCUGC; sugars from the 5' end m5 d10 m5, all phosphorothioate, methylation of C not given here) [[LINC-PINT]103] | 20.75%
21 | mG*mG*mU*mC*mU*C*C*T*C*C*A*C*A*C*C*mC*mU*mU*mC*mU (mG*mG*mU*mC*mU*dC*dC*dT*dC*dC*dA*dC*dA*dC*dC*mC*mU*mU*mC*mU; antisense) [[LINC-PINT]127] | 23.66%
22 | mG*mG*mU*mG*mG*C*C*A*C*A*G*G*C*A*A*mC*mG*mU*mC*mA (GGUGGCCACAGGCAACGUCA; antisense; sugars from the 5' end m5 d10 m5, all phosphorothioate, methylation of C not given here) [[CDKN2B-AS1]2196] | 39.07%
23 | mG*mU*mC*mA*mA*A*C*C*T*A*G*A*A*A*G*mA*mA*mG*mC*mA (mG*mU*mC*mA*mA*dA*dC*dC*dT*dA*dG*dA*dA*dA*dG*mA*mA*mG*mC*mA; antisense) [[CDKN2B-AS1]1528] | 23.64%
24 | mG*mU*mC*mC*mC*A*G*G*C*C*T*C*C*A*G*mU*mG*mU*mC*mU (mG*mU*mC*mC*mC*dA*dG*dG*dC*dC*dT*dC*dC*dA*dG*mU*mG*mU*mC*mU; antisense) [[CDKN2B-AS1]2223] | 19.01%
25 | mG*mU*mC*mC*mC*A*T*C*C*C*T*T*C*T*G*mC*mU*mG*mC*mC (GUCCCATCCCTTCTGCUGCC; antisense; sugars from the 5' end m5 d10 m5, all phosphorothioate, methylation of C not given here) [[LINC-PINT]102] | 22.47%
26 | mG*mU*mC*mC*mG*T*A*C*C*T*C*C*A*C*C*mC″mA*mC*mC*mG [[LINC-PINT]727.1] | 22.79%
27 | mG*mU*mC*mU*mC*C*T*C*C*A*C*A*C*C*C*mU*mU*mC*mU*mC (mG*mU*mC*mU*mC*dC*dT*dC*dC*dA*dC*dA*dC*dC*dC*mU*mU*mC*mU*mC; antisense) [[LINC-PINT]126] | 25.01%
28 | mG*mU*mU*mC*mA*G*T*C*A*G*A*T*C*G*C*mU*mG*mG*mG*mA (mG*mU*mU*mC*mA*dG*dT*dC*dA*dG*dA*dT*dC*dG*dC*mU*mG*mG*mG*mA) [[LINC-PINT]412 KL] | 17.46%
29 | mU*mA*mA*mA*mA*T*A*A*G*G*G*G*A*A*T*mA*mG*mG*mG*mG (mU*mA*mA*mA*mA*dT*dA*dA*dG*dG*dG*dG*dA*dA*dT*mA*mG*mG*mG*mG) [[CDKN2B-AS1]80] | 40.95%
30 | mU*mC*mC*mC*mA*A*C*T*C*T*T*C*T*A*A*mC*mU*mC*mG*mU (mU*mC*mC*mC*mA*dA*dC*dT*dC*dT*dT*dC*dT*dA*dA*mC*mU*mC*mG*mU; antisense) [[LINC-PINT]1284 KL] | 40.79%
31 | mU*mC*mC*mC*mA*T*C*C*C*T*T*C*T*G*C*mU*mG*mA*mC*mA (UCCCATCCCTTCTGCUGACA; sugars from the 5' end m5 d10 m5, all phosphorothioate, methylation of C not given here) [[LINC-PINT]101] | 43.08%

Source: patent publication US20240384268A1, “Oligonucleotides” (Hudson Institute of Medical Research, priority 2021, published 2024)
